{
  "source": "paper PMC10983009",
  "about": "(Journal of Medicinal Chemistry, 2024)",
  "key": {"[1]": {"test_system": "H3.3K27M, ACVR1^R206H mutant HSJD-DIPG-007 cells", "conditions": "25 mg/kg for 28 days; cited from earlier work"}, "[2]": {"target": "TNIK(h) (Homo sapiens, UniProt Q9UKE5)", "sequence (Q9UKE5 whole entry)": "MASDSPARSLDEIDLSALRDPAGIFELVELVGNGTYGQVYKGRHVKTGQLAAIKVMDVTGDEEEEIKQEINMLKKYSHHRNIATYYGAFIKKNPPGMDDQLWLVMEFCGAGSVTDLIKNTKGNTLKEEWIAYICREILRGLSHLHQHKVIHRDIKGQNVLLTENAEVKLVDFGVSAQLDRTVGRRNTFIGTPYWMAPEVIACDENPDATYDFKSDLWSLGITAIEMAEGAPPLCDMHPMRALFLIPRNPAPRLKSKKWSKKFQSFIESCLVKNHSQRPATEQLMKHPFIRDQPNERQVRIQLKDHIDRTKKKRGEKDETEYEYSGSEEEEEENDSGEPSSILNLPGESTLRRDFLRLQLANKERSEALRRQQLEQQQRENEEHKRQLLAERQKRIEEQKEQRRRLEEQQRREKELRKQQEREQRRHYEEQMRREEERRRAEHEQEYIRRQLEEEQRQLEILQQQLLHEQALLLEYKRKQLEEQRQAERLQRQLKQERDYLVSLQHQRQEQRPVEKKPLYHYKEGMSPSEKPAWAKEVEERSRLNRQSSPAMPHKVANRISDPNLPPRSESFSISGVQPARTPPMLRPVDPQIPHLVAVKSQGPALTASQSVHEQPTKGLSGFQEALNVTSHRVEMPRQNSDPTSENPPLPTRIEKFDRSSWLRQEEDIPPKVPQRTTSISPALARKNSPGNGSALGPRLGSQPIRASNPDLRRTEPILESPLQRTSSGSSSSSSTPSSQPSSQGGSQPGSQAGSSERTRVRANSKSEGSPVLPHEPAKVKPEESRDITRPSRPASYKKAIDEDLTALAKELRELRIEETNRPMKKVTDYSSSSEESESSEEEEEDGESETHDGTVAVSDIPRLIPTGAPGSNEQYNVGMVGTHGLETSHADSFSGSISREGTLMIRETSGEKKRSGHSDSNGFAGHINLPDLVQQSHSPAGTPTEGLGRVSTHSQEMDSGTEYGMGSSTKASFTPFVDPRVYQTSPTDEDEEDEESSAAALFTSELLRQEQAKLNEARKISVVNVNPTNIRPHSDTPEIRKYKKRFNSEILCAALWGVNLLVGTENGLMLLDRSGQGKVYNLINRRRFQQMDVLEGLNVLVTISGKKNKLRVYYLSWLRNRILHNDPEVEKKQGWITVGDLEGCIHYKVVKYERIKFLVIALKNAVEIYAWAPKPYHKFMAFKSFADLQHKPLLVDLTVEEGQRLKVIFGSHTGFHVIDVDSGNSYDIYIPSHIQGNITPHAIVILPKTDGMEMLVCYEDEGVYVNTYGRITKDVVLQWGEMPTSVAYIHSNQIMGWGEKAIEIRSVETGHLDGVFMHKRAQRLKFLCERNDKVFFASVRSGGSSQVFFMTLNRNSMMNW", "conditions": "at 1 μM; cited from earlier work"}, "[3]": {"test_system": "Caco-2 cells", "conditions": "literature value, cited from earlier work"}, "[4]": {"conditions": "compound remaining, literature value; cited from earlier work"}, "[5]": {"target": "DDR1(h) (Homo sapiens, UniProt Q08345)", "sequence (Q08345 19-913)": "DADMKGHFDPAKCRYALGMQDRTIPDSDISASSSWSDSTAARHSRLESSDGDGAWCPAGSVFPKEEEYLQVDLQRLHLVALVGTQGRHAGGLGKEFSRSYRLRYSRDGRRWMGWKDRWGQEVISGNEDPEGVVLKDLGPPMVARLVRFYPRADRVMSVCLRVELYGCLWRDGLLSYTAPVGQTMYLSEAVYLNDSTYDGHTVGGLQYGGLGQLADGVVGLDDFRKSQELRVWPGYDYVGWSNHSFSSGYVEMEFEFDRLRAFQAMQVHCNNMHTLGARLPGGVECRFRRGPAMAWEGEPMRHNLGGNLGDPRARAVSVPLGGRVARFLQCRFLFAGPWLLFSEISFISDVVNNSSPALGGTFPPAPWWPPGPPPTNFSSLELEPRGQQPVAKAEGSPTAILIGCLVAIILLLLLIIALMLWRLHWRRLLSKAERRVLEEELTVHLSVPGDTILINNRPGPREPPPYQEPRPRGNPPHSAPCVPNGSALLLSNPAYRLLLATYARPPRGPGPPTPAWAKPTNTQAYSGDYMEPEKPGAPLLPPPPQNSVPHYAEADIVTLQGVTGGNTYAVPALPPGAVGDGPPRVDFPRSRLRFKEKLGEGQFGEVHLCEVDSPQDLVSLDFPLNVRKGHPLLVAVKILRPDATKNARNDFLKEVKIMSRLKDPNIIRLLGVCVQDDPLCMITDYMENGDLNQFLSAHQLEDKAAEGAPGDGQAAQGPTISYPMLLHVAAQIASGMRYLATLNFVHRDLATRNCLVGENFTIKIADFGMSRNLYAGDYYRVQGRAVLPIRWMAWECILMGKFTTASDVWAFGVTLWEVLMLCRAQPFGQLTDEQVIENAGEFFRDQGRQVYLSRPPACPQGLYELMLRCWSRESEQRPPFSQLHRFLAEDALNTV", "conditions": "at 1 μM; cited from earlier work"}, "[6]": {"conditions": "compound remaining, literature value; cited from earlier work", "remark": "listed apart in the source"}, "[7]": {"experiment": "Caco-2 permeability assay", "format": "in vitro ADME", "conditions": "human, Caco-2, pH 7.4"}, "[8]": {"target": "Full Kinase Panel (422-member kinase set)", "experiment": "Eurofins Full Kinase Panel KinaseProfiler, whole panel", "format": "biochemical", "conditions": "at 1 μM"}, "[9]": {"experiment": "Liver microsomal metabolic stability assay", "format": "in vitro ADME, human", "conditions": "compound remaining after 60 min at 37 °C, 1 μM"}, "[10]": {"experiment": "Liver microsomal metabolic stability assay", "format": "in vitro ADME, CD-1 mouse (male)", "conditions": "compound remaining after 60 min at 37 °C, 1 μM"}, "[11]": {"target": "T1, ALK4/ACVR1β (Homo sapiens, UniProt P36896)", "T1 sequence (P36896 24-505)": "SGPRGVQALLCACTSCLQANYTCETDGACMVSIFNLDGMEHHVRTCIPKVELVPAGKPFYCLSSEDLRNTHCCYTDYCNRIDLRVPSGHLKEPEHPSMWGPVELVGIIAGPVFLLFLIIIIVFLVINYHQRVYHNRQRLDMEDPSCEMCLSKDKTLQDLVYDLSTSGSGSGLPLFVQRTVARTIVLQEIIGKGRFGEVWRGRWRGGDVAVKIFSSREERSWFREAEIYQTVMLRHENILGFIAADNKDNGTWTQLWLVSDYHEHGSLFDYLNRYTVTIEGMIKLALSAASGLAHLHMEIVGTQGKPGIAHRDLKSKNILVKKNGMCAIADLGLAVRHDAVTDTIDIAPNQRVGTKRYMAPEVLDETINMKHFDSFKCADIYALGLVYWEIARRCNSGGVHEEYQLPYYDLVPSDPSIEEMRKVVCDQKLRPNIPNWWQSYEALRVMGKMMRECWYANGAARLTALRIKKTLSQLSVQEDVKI", "experiment": "Radiometric in vitro kinase assay"}, "[12]": {"experiment": "In vivo PK exposure in mouse model", "conditions": "male, NOD-SCID, po, 25 mg/kg"}},
  "note": "“And” between values parts separate entries of the source, which are not always exact repeats. Identical values can stand only once. Like-named read-outs stand apart in the source and are kept apart here. Marks after values point to notes of the source that are not given here.",
  "data": [
    {"smiles": "COc1cc(-c2cc(-c3ccc(N4CCNCC4)cc3)cnc2C)cc(OC)c1OC", "note": "[LDN-214117]", "values": [
      {"measurement": "survival of mice bearing orthotopic xenografts", "setting": "[1]", "result": "extended survival"}
    ]},
    {"smiles": "COc1cc(-c2cncc(-c3ccc(N4CCNCC4)cc3)c2C)cc(OC)c1OC", "note": "[Compound M4K2009]", "values": [
      {"measurement": "inhibition of TNIK", "setting": "[2]", "result": "almost complete inhibition"},
      {"measurement": "Caco-2 Permeability Assay Papp_AB", "setting": "[3]; A to B", "result": "5.4 ^a 10^–6 cm/s"},
      {"measurement": "Caco-2 Permeability Assay Papp_BA", "setting": "[3]; B to A", "result": "1.5 ^a 10^–6 cm/s"},
      {"measurement": "Microsomal Stability Assay MLM (%)", "setting": "[4]", "result": "65 ^a % and 65%"},
      {"measurement": "inhibition of DDR1", "setting": "[5]", "result": "almost complete inhibition"},
      {"measurement": "Microsomal Stability Assay HLM (%)", "setting": "[6]", "result": "71 ^a % and 71%"}
    ]},
    {"smiles": "COc1cc(-c2cncc3c2CN(C)Cc2cc(N4CCNCC4)ccc2-3)cc(OC)c1OC", "note": "[Compound M4K2304, 6-Methyl-9-(piperazin-1-yl)-4-(3,4,5-trimethoxyphenyl)-6,7-dihydro-5H-benzo[c]pyrido[3,4-e]azepine]", "values": [
      {"measurement": "recovery at 2 h, 5 μM", "setting": "[7]", "result": "< 15", "unit": "%"},
      {"measurement": "kinases inhibited by more than 50%", "setting": "[8]", "result": 3, "unit": "%"},
      {"measurement": "Microsomal Stability Assay HLM (%)", "setting": "[9]", "result": "> 70", "unit": "%"},
      {"measurement": "Microsomal Stability Assay MLM (%)", "setting": "[10]", "result": "> 70", "unit": "%"},
      {"measurement": "IC50", "setting": "[11]", "result": 1180, "unit": "nM"}
    ]},
    {"smiles": "COc1cc(-c2cncc3c2CN(C)Cc2cc(N4CCN(C)CC4)ccc2-3)cc(OC)c1OC", "note": "[Compound M4K2306, 6-Methyl-9-(4-methylpiperazin-1-yl)-4-(3,4,5-trimethoxyphenyl)-6,7-dihydro-5H-benzo[c]pyrido[3,4-e]azepine]", "values": [
      {"measurement": "recovery at 2 h, 5 μM", "setting": "[7]", "result": "< 15", "unit": "%"}
    ]},
    {"smiles": "COc1cc(-c2cncc3c2CCOc2cc(N4CCN(C)CC4)ccc2-3)cc(OC)c1OC", "note": "[Compound M4K2281, 9-(4-Methylpiperazin-1-yl)-4-(3,4,5-trimethoxyphenyl)-5,6-dihydrobenzo[2,3]oxepino[4,5-c]pyridine]", "values": [
      {"measurement": "concentration at 24 h", "setting": "[12]", "result": 0, "unit": "nM"}
    ]}
  ]
}
